Assay results published in patent US7109150B2, “Trifluoromethylpyrrolecarboxamides and trifluoromethylpyrrolethioamides as fungicides” (Syngenta Crop Protection, Inc., priority 1999, dated 2006).

melting point: 139 to 141 °C
Compound: Cn1cc(C(=O)Nc2ccccc2-c2ccc(Cl)s2)c(C(F)(F)F)c1 [Example 3, 1-Methyl-4-trifluoromethyl-1H-pyrrole-3-carboxylic acid [2′-(5′-chloro-thienyl)-2-benzamide]]
